Read-outs that look alike come from different tables or passages of the source.
Columns and labels:
Assay type in all cases: biochemical
Abl kinase = biological target: T1, Abl kinase (Homo sapiens, UniProt P00519); assay: Abl kinase assay A1
T1 sequence (P00519 229-512): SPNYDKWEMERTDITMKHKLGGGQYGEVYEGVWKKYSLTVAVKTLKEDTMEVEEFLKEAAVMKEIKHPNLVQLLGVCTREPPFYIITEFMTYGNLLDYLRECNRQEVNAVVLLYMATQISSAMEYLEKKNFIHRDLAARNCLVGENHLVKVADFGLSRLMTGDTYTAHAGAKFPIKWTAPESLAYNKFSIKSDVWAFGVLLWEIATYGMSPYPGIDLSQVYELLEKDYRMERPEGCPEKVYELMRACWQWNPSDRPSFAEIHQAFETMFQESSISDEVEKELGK
Protocol: (§1) IC50 values were calculated from a series of percent inhibition values determined at a range of inhibitor concentrations using software routines as implemented in the GraphPad Prism software package.

KDR kinase = KDR kinase (Homo sapiens, UniProt P35968, DEL940-989/E990V); assay: KDR kinase assay K1
Protocol: as §1

B-Raf(V599E) kinase = B-Raf(V599E) kinase (Homo sapiens, UniProt P15056, V600E); assay: B-Raf(V599E) kinase assay B1; conditions: for IC50: Method B1, construct 1
Protocol: The test compounds were incubated with the reaction mixture at 30° C. for 2 h. […] The reaction rate was calculated using the 1.5 h to 2.5 h time frame. […] IC50 values were calculated from a series of percent inhibition values determined at a range of inhibitor concentrations using software routines as implemented in the GraphPad Prism software package.

[1] = biological target: phosphorylated p-38-alpha kinase (Homo sapiens, UniProt Q16539); assay: P-38 alpha kinase assay P1; conditions: Method P1; 2 h pre-incubation before ATP
[2] = biological target: T2, phospho p-38 alpha kinase (Homo sapiens, UniProt Q16539); assay: P-38 alpha kinase assay (spectrophotometric, pyruvate kinase/lactate dehydrogenase coupled); conditions: Table 5; for IC50: assay not named, read-out: uM
T2 construct: purchased Panvera

[3] = read-out: Results, % @ concentration μM, Method A1, @ 10 μM
[4] = read-out: Results, % @ concentration μM, Method K1, @ 10 μM
[5] = read-out: Results, % @ concentration μM
[6] = Method A1, read-out: Results, μM (IC50)

T2 sequence (Q16539 whole entry): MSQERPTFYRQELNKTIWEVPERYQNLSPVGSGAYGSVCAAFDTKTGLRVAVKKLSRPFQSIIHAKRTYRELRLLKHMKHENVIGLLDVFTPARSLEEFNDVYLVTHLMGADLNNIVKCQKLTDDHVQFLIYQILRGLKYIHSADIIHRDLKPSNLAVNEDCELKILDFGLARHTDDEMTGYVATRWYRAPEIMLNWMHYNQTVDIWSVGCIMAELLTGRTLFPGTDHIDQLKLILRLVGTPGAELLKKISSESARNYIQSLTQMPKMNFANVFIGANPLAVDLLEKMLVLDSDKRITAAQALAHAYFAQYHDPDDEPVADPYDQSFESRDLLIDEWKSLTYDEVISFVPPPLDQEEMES
Chain of KDR kinase (P35968 with tags, fused parts or gaps DEL940-989/E990V): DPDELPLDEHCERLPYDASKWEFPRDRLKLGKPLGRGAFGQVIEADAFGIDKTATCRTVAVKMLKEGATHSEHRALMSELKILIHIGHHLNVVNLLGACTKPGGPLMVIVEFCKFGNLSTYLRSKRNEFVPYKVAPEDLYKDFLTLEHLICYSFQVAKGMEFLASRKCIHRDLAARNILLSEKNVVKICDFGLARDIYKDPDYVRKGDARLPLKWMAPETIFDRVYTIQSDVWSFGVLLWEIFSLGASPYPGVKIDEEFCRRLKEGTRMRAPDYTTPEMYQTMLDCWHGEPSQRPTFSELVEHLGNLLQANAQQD
Chain of B-Raf(V599E) kinase (P15056 with tags, fused parts or gaps V600E): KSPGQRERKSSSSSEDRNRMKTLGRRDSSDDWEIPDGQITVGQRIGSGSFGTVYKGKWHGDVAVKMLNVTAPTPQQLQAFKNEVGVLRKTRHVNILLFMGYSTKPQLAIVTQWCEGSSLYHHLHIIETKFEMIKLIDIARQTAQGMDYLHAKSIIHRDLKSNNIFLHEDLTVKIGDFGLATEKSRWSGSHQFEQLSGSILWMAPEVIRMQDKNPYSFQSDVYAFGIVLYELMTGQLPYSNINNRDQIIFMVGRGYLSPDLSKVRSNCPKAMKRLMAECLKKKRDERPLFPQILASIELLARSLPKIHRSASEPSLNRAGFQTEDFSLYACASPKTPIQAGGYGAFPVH
Chain of phosphorylated p-38-alpha kinase (Q16539 1-360 isoform Q16539-2): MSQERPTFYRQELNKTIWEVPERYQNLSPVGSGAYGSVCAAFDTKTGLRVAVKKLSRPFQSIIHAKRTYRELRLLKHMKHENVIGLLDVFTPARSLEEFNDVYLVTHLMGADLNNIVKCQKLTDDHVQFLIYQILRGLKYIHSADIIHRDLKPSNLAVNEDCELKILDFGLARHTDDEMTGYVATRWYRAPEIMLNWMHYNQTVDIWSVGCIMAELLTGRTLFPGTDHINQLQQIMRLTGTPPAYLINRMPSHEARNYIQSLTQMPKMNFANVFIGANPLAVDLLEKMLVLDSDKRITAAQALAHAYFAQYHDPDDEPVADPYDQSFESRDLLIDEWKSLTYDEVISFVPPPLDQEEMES

## O=C(O)Cc1cccc(-n2nc(-c3ccc(F)cc3)cc2NC(=O)Nc2cccc(Cl)c2Cl)c1 [Example 431, 2-(3-(5-(3-(2,3-dichlorophenyl)ureido)-3-(4-fluorophenyl)-1H-pyrazol-1-yl)phenyl)acetic acid]
Abl kinase; [3]
  inhibition at 10 µM: 29%

## CCOC(=O)Cc1ccc(-n2nc(C3CCCC3)cc2NC(=O)Nc2cccc(Cl)c2Cl)cc1 [Example 437, ethyl 2-(4-(3-cyclopentyl-5-(3-(2,3-dichlorophenyl)ureido)-1H-pyrazol-1-yl)phenyl)acetate]
KDR kinase; [4]
  inhibition at 10 µM: 32%
B-Raf(V599E) kinase
  IC50: 0.16 µM
Abl kinase; [3]
  inhibition at 10 µM: 21%

## CC(C(=O)O)c1ccc(-n2nc(-c3cccs3)cc2NC(=O)Nc2cccc(Cl)c2Cl)cc1 (stereo not shown) [Example 443, 2-(4-(5-(3-(2,3-dichlorophenyl)ureido)-3-(thiophen-2-yl)-1H-pyrazol-1-yl)phenyl)propanoic acid]
[1]
  IC50: 0.03 µM
KDR kinase; [4]
  inhibition at 10 µM: 33%
B-Raf(V599E) kinase; [5]
  inhibition at 1 µM: 20%

## COC(=O)Cc1ccc(-n2nc(-c3ccsc3)cc2NC(=O)Nc2cccc(Cl)c2Cl)cc1 [Example 445, methyl 2-(4-(5-(3-(2,3-dichlorophenyl)ureido)-3-(thiophen-3-yl)-1H-pyrazol-1-yl)phenyl)acetate]
B-Raf(V599E) kinase; [5]
  inhibition at 1 µM: 39%
Abl kinase; [3]
  inhibition at 10 µM: 30%

## NC(=O)Cc1cccc(-n2nc(-c3ccsc3)cc2NC(=O)Nc2cccc(Cl)c2Cl)c1 [Example 452, 1-(1-(3-(2-amino-2-oxoethyl)phenyl)-3-(thiophen-3-yl)-1H-pyrazol-5-yl)-3-(2,3-dichlorophenyl)urea]
[1]
  IC50: 0.006 µM
B-Raf(V599E) kinase; [5]
  inhibition at 1 µM: 45%
Abl kinase; [3]
  inhibition at 10 µM: 37%

## O=C(Cc1cccc(-n2nc(-c3cccs3)cc2NC(=O)Nc2cccc(Cl)c2Cl)c1)NCC(O)CO (stereo not shown) [Example 460, 1-(2,3-dichlorophenyl)-3-(1-(3-(2-(2,3-dihydroxypropylamino)-2-oxoethyl)phenyl)-3-(thiophen-2-yl)-1H-pyrazol-5-yl)urea]
[1]
  IC50: 0.008 µM
KDR kinase; [4]
  inhibition at 10 µM: 26%
B-Raf(V599E) kinase
  IC50: 2.4 µM

## O=C(Cc1cccc(-n2nc(-c3ccccc3F)cc2NC(=O)Nc2cccc(Cl)c2Cl)c1)NC(CO)CO [Example 461, 1-(2,3-dichlorophenyl)-3-(1-(3-(2-(1,3-dihydroxypropan-2-ylamino)-2-oxoethyl)phenyl)-3-(2-fluorophenyl)-1H-pyrazol-5-yl)urea]
[2]
  IC50: 0.017 µM
[1]
  IC50: 0.03 µM
KDR kinase; [4]
  inhibition at 10 µM: 33%
B-Raf(V599E) kinase; [5]
  inhibition at 10 µM: 28%

## O=C(Cc1cccc(-n2nc(-c3cccs3)cc2NC(=O)Nc2cccc(Cl)c2Cl)c1)NC(CO)CO [Example 462, 1-(2,3-dichlorophenyl)-3-(1-(3-(2-(1,3-dihydroxypropan-2-ylamino)-2-oxoethyl)phenyl)-3-(thiophen-2-yl)-1H-pyrazol-5-yl)urea]
[1]
  IC50: 0.008 µM
KDR kinase; [4]
  inhibition at 10 µM: 25%
B-Raf(V599E) kinase; [5]
  inhibition at 1 µM: 43%

## CN(C)[C@@H]1CCN(C(=O)Cc2cccc(-n3nc(C(C)(C)C)cc3NC(=O)Nc3cccc(Cl)c3Cl)c2)C1 [Example 464, 1-(3-tert-butyl-1-(3-(2-((R)-3-(dimethylamino)pyrrolidin-1-yl)-2-oxoethyl)phenyl)-1H-pyrazol-5-yl)-3-(2,3-dichlorophenyl)urea]
KDR kinase; [5]
  inhibition at 10 µM: 85%
Abl kinase; [5]
  inhibition at 10 µM: 82%

## CN(C)[C@H]1CCN(C(=O)Cc2cccc(-n3nc(C(C)(C)C)cc3NC(=O)Nc3cccc(Cl)c3Cl)c2)C1 [Example 465, 1-(3-tert-butyl-1-(3-(2-((S)-3-(dimethylamino)pyrrolidin-1-yl)-2-oxoethyl)phenyl)-1H-pyrazol-5-yl)-3-(2,3-dichlorophenyl)urea]
KDR kinase; [5]
  inhibition at 10 µM: 91%
Abl kinase
  IC50: 1.2 µM

## NC(=O)Cc1ccc(-n2nc(-c3ccsc3)cc2NC(=O)Nc2cccc(Cl)c2Cl)cc1 [Example 469, 1-(1-(4-(2-amino-2-oxoethyl)phenyl)-3-(thiophen-3-yl)-1H-pyrazol-5-yl)-3-(2,3-dichlorophenyl)urea]
[1]
  IC50: 0.009 µM
B-Raf(V599E) kinase; [5]
  inhibition at 1 µM: 43%
Abl kinase; [3]
  inhibition at 10 µM: 22%

## O=C(Cc1ccc(-n2nc(-c3ccccc3)cc2NC(=O)Nc2cccc(Cl)c2Cl)cc1)NCCO [Example 470, 1-(2,3-dichlorophenyl)-3-(1-(4-(2-(2-hydroxyethylamino)-2-oxoethyl)phenyl)-3-phenyl-1H-pyrazol-5-yl)urea]
[2]
  IC50: 0.005 µM
Abl kinase; [3]
  inhibition at 10 µM: 15%

## CC(C)(C)c1cc(NC(=O)Nc2cccc(Cl)c2Cl)n(-c2ccc(CC(=O)N3CCCC(C(=O)O)C3)cc2)n1 (stereo not shown) [Example 476, 1-(2-(4-(3-tert-butyl-5-(3-(2,3-dichlorophenyl)ureido)-1H-pyrazol-1-yl)phenyl)acetyl)piperidine-3-carboxylic acid]
[2]
  IC50: 0.024 µM
[1]
  IC50: 0.006 µM
B-Raf(V599E) kinase
  IC50: 0.041 µM
Abl kinase; [6]
  IC50: 8.4 µM

## CN(C)[C@@H]1CCN(C(=O)Cc2ccc(-n3nc(C(C)(C)C)cc3NC(=O)Nc3cccc(Cl)c3Cl)cc2)C1 [Example 480, (R)-1-(3-tert-butyl-1-(4-(2-(3-(dimethylamino)pyrrolidin-1-yl)-2-oxoethyl)phenyl)-1H-pyrazol-5-yl)-3-(2,3-dichlorophenyl)urea]
KDR kinase; [4]
  inhibition at 10 µM: 92%
B-Raf(V599E) kinase
  IC50: 0.029 µM
Abl kinase; [3]
  inhibition at 10 µM: 94%

## CN(C)[C@@H]1CCN(C(=O)Cc2ccc(-n3nc(C(C)(C)C)cc3NC(=O)Nc3cccc(Cl)c3Cl)cc2)C1 [Example 481, (R)-1-(3-tert-butyl-1-(4-(2-(3-(dimethylamino)pyrrolidin-1-yl)-2-oxoethyl)phenyl)-1H-pyrazol-5-yl)-3-(2,3-dichlorophenyl)urea]
KDR kinase; Method K1, @ 10 μM
  Results, % @ concentration μM: 102% @10
B-Raf(V599E) kinase
  IC50: 0.041 µM
Abl kinase; Method A1, @ 10 μM
  Results, % @ concentration μM: 93% @10

## CC(C)(C)c1cc(NC(=O)Nc2cccc(Cl)c2Cl)n(-c2cccc(CN3C(=O)NC(=O)C3=O)c2)n1 [Example 482, 1-(3-tert-butyl-1-(3-((2,4,5-trioxoimidazolidin-1-yl)methyl)phenyl)-1H-pyrazol-5-yl)-3-(2,3-dichlorophenyl)urea]
[2]
  IC50: 0.084 µM
KDR kinase; Method K1
  IC50: 1.4 µM
B-Raf(V599E) kinase
  IC50: 0.0038 µM
Abl kinase; [6]
  IC50: 3.2 µM

## O=C(Nc1cccc(Cl)c1Cl)Nc1cc(-c2ccccc2)nn1-c1cccc(CO)c1 [Example 484, 1-(2,3-dichlorophenyl)-3-(1-(3-(hydroxymethyl)phenyl)-3-phenyl-1H-pyraol-5-yl)urea]
[1]
  IC50: 0.009 µM
KDR kinase; [4]
  inhibition at 10 µM: 37%
B-Raf(V599E) kinase
  IC50: 7.4 µM

## O=C(Nc1ccc(F)c(F)c1F)Nc1cc(-c2cccs2)nn1-c1cccc(CO)c1 [Example 493, 1-(1-(3-(hydroxymethyl)phenyl)-3-(thiophen-2-yl)-1H-pyrazol-5-yl)-3-(2,3,4-trifluorophenyl)urea]
[2]; @ 1 uM
  % @ concentration, uM: 36%
[2]; @ 10 uM
  % @ concentration, uM: 73%
KDR kinase; [4]
  inhibition at 10 µM: 82%
Abl kinase; read-out: Results, % @ concentration μM, Method A1, @ 1 μM
  inhibition at 1 µM: 17%

## CC(C)(C)c1cc(NC(=O)Nc2cccc(F)c2F)n(-c2cccc(CC(N)=O)c2)n1 [Example 495, 1-(1-(3-(2-amino-2-oxoethyl)phenyl)-3-tert-butyl-1H-pyrazol-5-yl)-3-(2,3-difluorophenyl)urea]
[2]
  IC50: 0.25 µM
[1]
  IC50: 0.038 µM
B-Raf(V599E) kinase
  IC50: 0.009 µM
Abl kinase; [6]
  IC50: 7.6 µM

## CC(C)(C)c1cc(NC(=O)Nc2ccc(F)cc2F)n(-c2cccc(CC(N)=O)c2)n1 [Example 496, 1-(1-(3-(2-amino-2-oxoethyl)phenyl)-3-tert-butyl-1H-pyrazol-5-yl)-3-(2,4-difluorophenyl)urea]
KDR kinase; Method K1
  IC50: 2.4 µM
B-Raf(V599E) kinase
  IC50: 0.01 µM
Abl kinase; [3]
  inhibition at 10 µM: 66%

## CC(C)(C)c1cc(NC(=O)Nc2ccc(F)cc2F)n(-c2ccc(CC(=O)O)cc2)n1 [Example 497, 2-(4-(3-tert-butyl-5-(3-(2,4-difluorophenyl)ureido)-1H-pyrazol-1-yl)phenyl)acetic acid]
KDR kinase; [4]
  inhibition at 10 µM: 43%
B-Raf(V599E) kinase
  IC50: 0.045 µM
Abl kinase; [3]
  inhibition at 10 µM: 30%

## NC(=O)Cc1cccc(-n2nc(-c3ccccc3)cc2NC(=O)Nc2cccc(Oc3cccnc3)c2)c1 [Example 501, 1-(1-(3-(2-amino-2-oxoethyl)phenyl)-3-phenyl-1H-pyrazol-5-yl)-3-(3-(pyridin-3-yloxy)phenyl)urea]
[1]
  IC50: 0.076 µM
KDR kinase; Method K1
  IC50: 1.6 µM
Abl kinase; [6]
  IC50: 2.5 µM

## CC(C)(C)c1cc(NC(=O)Nc2cccc(-c3cccnc3)c2)n(-c2cccc(CC(N)=O)c2)n1 [Example 507, 1-(1-(3-(2-amino-2-oxoethyl)phenyl)-3-tert-butyl-1H-pyrazol-5-yl)-3-(3-(pyridin-3-yl)phenyl)urea]
[2]
  IC50: 0.007 µM
[1]
  IC50: 0.18 µM
B-Raf(V599E) kinase
  IC50: 0.035 µM
Abl kinase; [6]
  IC50: 23.3 µM

## CC(C)(C)c1cc(NC(=O)Nc2cccc(-c3ccc(N)nc3)c2)n(-c2cccc(CC(N)=O)c2)n1 [Example 508, 1-(1-(3-(2-amino-2-oxoethyl)phenyl)-3-tert-butyl-1H-pyrazol-5-yl)-3-(3-(6-aminopyridin-3-yl)phenyl)urea]
[2]
  IC50: 0.052 µM
[1]
  IC50: 0.33 µM
B-Raf(V599E) kinase
  IC50: 0.02 µM
Abl kinase; [3]
  inhibition at 10 µM: 32%
